A melting point compilation (Tetko et al.; mined from patent text by program, amines drawn as free bases though some values may be those of a salt)

| Structure (SMILES) | melting point |
| --- | --- |
| Clc1nccnc1N1CCNCC1 | 47 to 53 °C |
| CS(=O)(=O)c1ccc(-c2cnn(Cc3ccc(Cl)s3)c(=O)c2-c2ccc(F)cc2)cc1 | 139 to 141 °C |
| C=CCOc1cc(NC(=O)OC(C)(C)C)c([N+](=O)[O-])cc1I | 93 to 95 °C |
| Fc1ccc(-n2nnc3cccnc32)c(F)c1 | 132 °C |
| COc1ccc(Cn2c(=O)cc(-c3nccn3C)c3cnc(SC)nc32)cc1Cl | 218 to 220 °C |
| CN1C(=O)C(Br)(Br)CC1c1cncc(Br)c1 (stereo not given) | 139 to 140 °C |
| OC1C(COC2CC2)OC(n2cnc3c(NC4CCCC4)ncnc32)C1O (stereo not given) | 126 to 128 °C |
| N#CC1CN1C(=O)CNC(=O)c1ccccc1 (stereo not given) | 78 to 81 °C |
| CCOC(=O)C(C)OCc1cc2nc(Cl)ccc2n1S(=O)(=O)c1ccc2nsnc2c1 (stereo not given) | 77 to 79 °C |
| CCOc1ncc(C(C)=O)cc1C(=O)Nc1c(C(N)=O)nn(C2CN(CC)C2)c1CC | 230 to 233 °C |
| CCN(CC)CC=CC(=O)Nc1cc2c(Nc3ccc(F)c(Cl)c3)ncnc2cc1OC1CCC1 | 111 °C |
| COC(=O)C1CC(Oc2ccc([N+](=O)[O-])cc2)CN1C(=O)C1(C)CCc2c(C)c(O)c(C)c(C)c2O1 (stereo not given) | 103 to 105 °C |
| CCOC(=O)/C=C/c1ccc(O)c([N+](=O)[O-])c1 | 114 to 115 °C |
| CCN(CC)C(=O)c1ccc(C(c2ccccc2)C2CCNCC2)cc1 (stereo not given) | 160 to 162 °C |
| CCCCN1CC=C(c2cccc3[nH]ccc23)CC1 | 91 °C |
| O=C1c2cc(Br)cc(Br)c2CCC1n1ccnc1 (stereo not given) | 180 to 184 °C |
| OCc1c(C2CC2)nn2ccc3c(c12)CCO3 | 139 to 140 °C |
| Cc1nc(C)c(Cl)c(NCc2nccc(SCCCCSCCn3c([N+](=O)[O-])cnc3C)c2C)n1 | 142 to 144 °C |
| O=C(CN1CCCC1=O)N1CCN(C(=O)CN2CC(c3ccc(Cl)cc3)CC2=O)CC1 (stereo not given) | 224 to 226 °C |
| O=C1C=C(c2ccc(OC(F)(F)F)cc2)CO1 | 122 to 123 °C |
| Nc1ccc(C2=Nn3ccnc3Cc3cc4c(cc32)OCO4)cc1 | 264 to 265 °C |
| Cc1nc(Cl)c2c(C)c(C)n(-c3c(C)cc(C)c4nsnc34)c2n1 | 169 to 171 °C |

| Structure (SMILES) | melting point |
| --- | --- |
| CCNC(=O)Nc1nc2cc(-c3cccnc3)cc(N3CCOCC3)n2n1 | 298 to 300 °C |
| CN1Cc2c(-c3noc(CCl)n3)ncn2-c2ccc(F)c(Cl)c2C1=O | 215 to 218 °C |
| CCCCOc1cc(O)c(C#N)s1 | 107 °C |
| CS(=O)(=O)On1nnc2c(Cl)cccc21 | 71 to 74 °C |
| Cc1cc(Cl)cc(C(=O)N(Cc2ccccc2)C2(C)CNC2)c1NC(=O)c1cc(C(F)(F)F)nn1-c1ncccc1Cl | 127 to 130 °C |
| COc1cc2c(cc1C)CCN=C2C1(C2C=CCCC2)CCC1 (stereo not given) | 70 to 73 °C |
| CCCOc1ccc(F)c2c1c(CCN(C)C)cn2CC | 49 to 50 °C |
| CCN(CC)C(=O)Cc1ccc(O)c(C(C)C)c1 | 112 to 113 °C |
| Brc1ccc2ccsc2c1 | 53 to 55 °C |
| CCCCNc1cccc(O)c1 | 35 °C |
| COc1cc2c(cc1OC)C1=C(C#N)SC(C)C(=O)N1CC2 (stereo not given) | 170 to 171 °C |
| Cn1ncc2c1-c1c(Oc3cc4c(cc3[N+](=O)[O-])OCO4)sc(C(N)=O)c1CC2 | 230 to 231 °C |
| Fc1cc2cc3n(c2cc1Cl)CCNC3 | 195 to 197 °C |
| CCOC(=CC=O)C1CCC2C3CCC4CC(O)CCC4(C)C3C(=O)CC12C (stereo not given) | 175 to 178 °C |
| CC(=O)Nc1ccn([C@@H]2[C@H](O)[C@H](O)CC[C@H]2OC(C)=O)c(=O)n1 (racemic) | 249 °C |
| CCOC(=O)CCN1C(=O)C(NC(=O)OCc2ccccc2)N=C(c2ccccc2)c2ccccc21 (stereo not given) | 57 to 59 °C |
| CC1OC1C1CC(O)C2(C)CCC3C(CCC4CC(OC5CCCCO5)CC(C)C43C)C12 (stereo not given) | 172 to 174 °C |
| COc1cc(N)c(C(=O)CS(C)=O)cc1OC (stereo not given) | 162 to 164 °C |
| COc1cccc(OC)c1N(COCC(C)C)C(=O)CCl | 107 to 110 °C |
| Cc1cc(C)c2cccc(OCc3c(Cl)ccc(S(=O)(=O)N4CCC[C@H]4C(=O)N4CCN(C(=O)c5ccc(C(N)=NO)cc5)CC4)c3Cl)c2n1 | 161 °C |
| CN(C)c1cc(-c2c[nH]c(N)n2)ccn1 | > 270 °C |
| C#CCN(C)c1nc(CO)cs1 | 69 to 70 °C |

Further lines, results first:

| melting point | Structure (SMILES) |
| --- | --- |
| 193 to 196 °C | Cc1cc2c(c(C)c1NC=O)C(c1ccc(C(C)C)cc1)CO2 (stereo not given) |
| 80 to 81.5 °C | COc1ccc(Nc2ccc(OCc3ccccc3)cc2)c(C(C)=O)c1 |
| 112 to 114 °C | O=C(Cn1cccc(O)c1=O)NCCN(CCNC(=O)Cn1cccc(O)c1=O)CCNC(=O)Cn1cccc(O)c1=O |
| 86 to 90 °C | Nc1c(CC(=O)O)cccc1Oc1ccccc1Cl |
| 67 °C | CCOP(=O)(OCC)c1sc2ccccc2c1P(=O)(OCC)OCC |
| 121 to 122 °C | COCOc1cc(Cl)ccc1-c1cc(-c2cccc(C(=O)NCCCn3ccnc3)c2)c(C#N)c(NC(=O)c2ccco2)n1 |
| 138 to 139 °C | CCCN(CCC)C(=O)Cn1c(-c2ccc(C(F)(F)F)cc2)nc2cccnc21 |
| 119 to 122 °C | CC(CF)(CF)C(=O)C(Oc1ccc(Cl)cc1)n1cnnc1 (stereo not given) |
| 213 to 215 °C | O=C(O)COc1cccc(C=Cc2nc(-c3ccccc3)c(-c3ccccc3)o2)c1 |
| 193 °C | CCCCc1nc2c(N)nc3ccccc3c2n1CCCNC(=O)OC(C)(C)C |
| 143 to 145 °C | COc1ccc(-c2ccccn2)c(NC(=O)CC(C)NC(=O)OC(C)(C)C)c1 (stereo not given) |
| 74.2 to 75 °C | COCCCCCNC(=O)C(c1ccccc1)c1ccccc1 |
| 90 to 92 °C | Brc1ccc(-c2cc3cc(-c4ccccc4)ccc3o2)cc1 |
| 40 to 41 °C | COc1ccc(C2(O)OC(=O)C(c3ccc4nsnc4c3)=C2Cc2ccccc2)cc1 (stereo not given) |
| 192 °C | c1ccc(-c2ccn3cnnc3n2)cc1 |
| 193 to 195 °C | O=C(CC1C(=S)Nc2ccccc21)NCc1ccccc1 (stereo not given) |
| 108 to 109 °C | C(=C\c1nc(COc2ccc(CCCCCCn3ccnc3)cc2)co1)/c1ccccc1 |
| 66 to 67 °C | CCCCc1nnc(SCc2ccc(Cl)cc2)n1Cc1ccc(OC(C(=O)O)c2ccccc2)cc1 (stereo not given) |
| 170 to 172 °C | O=C1C(=O)N(Cc2ccc(O)cc2)c2ccc(S(=O)(=O)N3CCC[C@H]3COc3ccccc3)cc21 |

| melting point | Structure (SMILES) |
| --- | --- |
| 79 to 80 °C | OC(c1cccnc1)c1cc(F)ccc1F (stereo not given) |
| 107 to 108 °C | CCNCC(=O)Nc1c(Cc2nccc3ccccc23)ccc(OC)c1OC |
| 83 to 87 °C | CSCC(C)(C)NC(=O)c1c(I)cccc1C(=O)Nc1ccc(Cn2nc(C(F)(F)F)cc2C(F)(F)F)cc1C |
| 180 to 182 °C | Nc1c2c(nc3ccccc13)CCC2 |
| 128 to 131 °C | COC1=C(OC)C(=O)C2=C(CC(CCCCOc3ccc(C(=O)N4CCOCC4)cc3)C2)C1=O |
| 171 to 173 °C | OC(c1ccncc1)c1c[nH]c2ccc(F)cc12 (stereo not given) |
| 98.5 to 100 °C | CN(C)CCCN1c2ccccc2N(C)C(=O)c2cccnc21 |
| 108 to 110 °C | CCOC(=O)CN(N)C(=O)Nc1ccccc1C(=O)C1CCCCC1 |
| 132 °C | CON=C(C(C)=NN)c1ccccc1 |
| 115 °C | Sc1nnc(Cc2ccc(Cl)cc2)o1 |
| 96 to 97 °C | Cc1nn(-c2ccc(C(F)(F)F)cn2)cc1CCCOc1cccc(CC(=O)O)c1 |
| 57 to 59 °C | COc1cc(C(C)=O)ccc1OC/C=C/CN1CCC(c2noc3cc(F)ccc23)CC1 |
| 183 °C | Cc1cc(-c2cc(C(F)(F)F)n3ncc(-c4ccccn4)c3n2)ccc1Cl |
| 150 to 152 °C | CN(C)S(=O)(=O)c1ccc2c(c1)C(O)c1ccccc1C=C2 (stereo not given) |
| 147 to 150 °C | CCOC(Cc1ccc(OCC=C2c3ccccc3CCc3ccccc32)cc1)C(=O)O (stereo not given) |
| 114 to 115 °C | c1ccc(CC[C@H]2CNCCN2)cc1 |
| 250 °C | Oc1ccc2c(-c3ccco3)nn(Cc3ccccc3F)c2n1 |
| 192 to 195 °C | CCCc1cn(-c2cc(=O)n(-c3ccccc3)nc2C#N)nn1 |
| 130 to 132 °C | COC(=O)[C@H](O)[C@@H](NC(=O)OC(C)(C)C)c1ccccc1 |

| melting point | Structure (SMILES) |
| --- | --- |
| 121 to 123 °C | CN1CCN(C(=O)[C@H](CC(N)=O)NC(=O)CCc2ccc(OCc3ccccc3)cc2OCc2ccccc2)CC1 |
| 94 to 95 °C | CC(=O)OCC=Cc1ccccc1S(N)(=O)=O |
| 236 to 241 °C | Cc1ccc(C(=O)n2nc(Nc3cccc(OCC#N)c3)nc2N)cc1 |
| 232 to 234 °C | CC(C)Oc1ccc2ncn(/C=C/C(=O)O)c(=O)c2c1 |
| 135 to 136 °C | O=C(O)c1cccc(-c2cccc(OCCc3cccc(C(F)(F)F)c3)n2)c1 |
| 130 to 135 °C | Cc1nc(-c2cc3c4ccccc4n(CCCCl)c3cn2)no1 |
| 214 to 215 °C | O=c1[nH]c(=O)n(CCCCN2CCC(OC(c3ccccc3)c3ccccc3)CC2)c2cc([N+](=O)[O-])ccc12 |
| 187 to 190 °C | Clc1ccc2[nH]c3c(c2c1)CN(CCc1ccc2ccccc2n1)CC3 |
| 169 to 171 °C | CCCc1nc2c(N)nc3cc(-c4ccccc4)ccc3c2n1CCCONC(=O)C(C)C |
| 125 to 127 °C | Nc1c(CC(=O)O)cccc1Oc1ccc(Cl)c(Cl)c1 |
| 48 to 50 °C | CC(C)(C)OC(=O)NC(CNC(=O)Nc1ccccc1)C(=O)OCc1ccccc1 (stereo not given) |
| 136 to 139 °C | Cn1ncnc1COc1nn2c(-c3ccccc3F)nnc2cc1C1CCCO1 (stereo not given) |
| 242 to 245 °C | Cn1c(-c2ccccn2)cc(O)c(C(=N)c2ccccc2)c1=O |
| 108 to 111 °C | CCc1cn(C(C)(C)C(=O)N(C)C)nc1-c1ccccc1 |
| 50 °C | CCOC(=O)C(C)(C)Oc1cccc(Cc2ccc(C(F)(F)F)cc2)c1 |
| 85 to 86 °C | COC(=O)c1ccccc1-c1cc(-c2ccc(Cl)cc2)on1 |
| 144 °C | CCc1nc(-c2nn(Cc3ccccc3F)c3ccccc23)oc1CO |
| 84 to 90 °C | CON1C(C)(C)CC(OC(=O)c2ccc3nn(-c4cc(C(C)(C)CC(C)(C)C)cc(C(C)(C)c5ccccc5)c4O)nc3c2)CC1(C)C |
